The results in this text go back to US9040528B2, “Chemical compounds 542” (AstraZeneca AB, priority 2008, dated 2015).

The first assay deals with Escherichia coli DNA gyrase A/B tetramer (Escherichia coli (strain K12), UniProt P0AES4+P0AES6). The assay is described as follows: DNA gyrase supercoiling activity fluorescence polarisation assay. It is filed as biochemical.
Conditions: not given
On the procedure: DNA Gyrase Supercoiling Activity Fluorescence Polarisation Assay
The supercoiling reactions may be quenched by the addition of 10 microliters/well of 40 nM oligodeoxynucleotide probe in 3× triplex-forming buffer consisting of 150 mM NaCl, and 150 mM sodium acetate at pH 3.5. The oligodeoxynucleotide probe may be 5′-BODIPY-FL-labeled […]. After 60 minutes, the fluorescence anisotropy of the BODIPY-FL may be measured in a Tecan Ultra plate reader, using 485 nm excitation and 535 nm emission filters equipped with polarizers. The IC50 may be determined by nonlinear regression using two control reactions. The first contains no test compound but 0.8% DMSO (100% activity) while the second control reaction contains 5 μM Ciprofloxacin and 0.8% DMSO (0% activity).
(Polarisation of emitted light reports the rotation of a fluorescent probe.)
For the compound `C[C@@H]1CN2c3c(cc4c(-n5cncn5)noc4c3F)CC3(C(=O)NC(=O)NC3=O)[C@H]2[C@H](C)O1` (racemic) [Example 53, (2R,4S,4 aS)-rel-11-fluoro-2,4-dimethyl-8-(1H-1,2,4-triazol-1-yl)-1,2,4,4a-tetrahydro-2′H,6H-spiro[1,4-oxazino[4,3-a][1,2]oxazolo[4,5-g]quinoline-5,5′-pyrimidine]-2′,4′,6′(1′H,3′H)-trione], the IC50 came out at 2.8 µM. On the same count and under the same terms, the result for `Cc1nnsc1-c1noc2c(F)c3c(cc12)CC1(C(=O)NC(=O)NC1=O)[C@H]1[C@H](C)O[C@H](C)CN31` (racemic) [Example 72, (2R,4S,4aS)-rel-11-fluoro-2,4-dimethyl-8-(4-methyl-1,2,3-thiadiazol-5-yl)-1,2,4,4a-tetrahydro-2′H,6H-spiro[1,4-oxazino[4,3-a][1,2]oxazolo[4,5-g]quinoline-5,5′-pyrimidine]-2′,4′,6′(1′H,3′H)-trione] reads 0.9 µM. Same read-out and setting: the result for `Cc1noc2c(F)c3c(cc12)CC1(C(=O)NC(=O)NC1=O)[C@H]1[C@H](C)O[C@H](C)CN31` (relative stereo) [Example 2, (2R,4S,4aS)-rel-11-fluoro-2,4,8-trimethyl-1,2,4,4a-tetrahydro-2′H,6H-spiro[isoxazolo[4,5-g][1,4]oxazino[4,3-a]quinoline-5,5′-pyrimidine]-2′,4′,6′(1′H,3′H)-trione] reads 0.4 µM.

The same assay, now with this note: 5 nM enzyme, relaxed plasmid, 0.3 mM ATP, ambient temperature; read-out: E. coli DNA gyrase supercoiling IC50.
With `C[C@@H]1CN2c3c(cc4c(NCc5ccccc5)noc4c3F)CC3(C(=O)NC(=O)NC3=O)[C@H]2[C@H](C)O1` (racemic) [Example 9, (2R,4S,4 aS)-rel-8-(benzylamino)-11-fluoro-2,4-dimethyl-1,2,4,4a-tetrahydro-2′H,6H-spiro[1,4-oxazino[4,3-a][1,2]oxazolo[4,5-g]quinoline-5,5′-pyrimidine]-2′,4′,6′(1′H,3′H)-trione], the IC50 turned out to be 1.7 µM. On the same count and under the same terms, the result for `C[C@@H]1CN2c3c(cc4c(NCc5ccccn5)noc4c3F)CC3(C(=O)NC(=O)NC3=O)[C@H]2[C@H](C)O1` (racemic) [Example 14, (2R,4 S,4aS)-rel-11-fluoro-2,4-dimethyl-8-[(pyridin-2-ylmethyl)amino]-1,2,4,4a-tetrahydro-2′H,6H-spiro[1,4-oxazino[4,3-a][1,2]oxazolo[4,5-g]quinoline-5,5′-pyrimidine]-2′,4′,6′(1′H,3′H)-trione] reads 2 µM; that for `C[C@@H]1CN2c3c(cc4c(-n5cc(I)cn5)noc4c3F)CC3(C(=O)NC(=O)NC3=O)[C@H]2[C@H](C)O1` (racemic) [Example 36, (2R,4S,4 aS)-rel-11-fluoro-8-(4-iodo-1H-pyrazol-1-yl)-2,4-dimethyl-1,2,4,4a-tetrahydro-2′H,6H-spiro[1,4-oxazino[4,3-a][1,2]oxazolo[4,5-g]quinoline-5,5′-pyrimidine]-2′,4′,6′(1′H,3′H)-trione], 2.1 µM.

`C[C@@H]1CN2c3c(cc4c(C5CC5)noc4c3Cl)CC3(C(=O)NC(=O)NC3=O)[C@H]2[C@H](C)O1` (racemic) [Example 39, (2R,4S,4 aS)-rel-11-chloro-8-cyclopropyl-2,4-dimethyl-1,2,4,4a-tetrahydro-2′H,6H-spiro[1,4-oxazino[4,3-a][1,2]oxazolo[4,5-g]quinoline-5,5′-pyrimidine]-2′,4′,6′(1′H,3′H)-trione]: the IC50 was determined as 0.6 µM. Same read-out and setting: the result for `C[C@@H]1CN2c3c(cc4c(-c5ncccn5)noc4c3Cl)CC3(C(=O)NC(=O)NC3=O)[C@H]2[C@H](C)O1` (racemic) [Example 42, (2R,4S,4 aS)-rel-11-chloro-2,4-dimethyl-8-(pyrimidin-2-yl)-1,2,4,4a-tetrahydro-2′H,6H-spiro[1,4-oxazino[4,3-a][1,2]oxazolo[4,5-g]quinoline-5,5′-pyrimidine]-2′,4′,6′(1′H,3′H)-trione] reads 1.2 µM; that for `C[C@@H]1CN2c3c(cc4c(-c5cncnc5)noc4c3Cl)CC3(C(=O)NC(=O)NC3=O)[C@H]2[C@H](C)O1` (racemic) [Example 44, (2R,4S,4 aS)-rel-11-chloro-2,4-dimethyl-8-(pyrimidin-5-yl)-1,2,4,4a-tetrahydro-2′H,6H-spiro[1,4-oxazino[4,3-a][1,2]oxazolo[4,5-g]quinoline-5,5′-pyrimidine]-2′,4′,6′(1′H,3′H)-trione], 1 µM; that for `C[C@@H]1CN2c3c(cc4c(-n5nccn5)noc4c3F)CC3(C(=O)NC(=O)NC3=O)[C@H]2[C@H](C)O1` (racemic) [Example 56, (2R,4S,4 aS)-rel-11-fluoro-2,4-dimethyl-8-(2H-1,2,3-triazol-2-yl)-1,2,4,4a-tetrahydro-2′H,6H-spiro[1,4-oxazino[4,3-a][1,2]oxazolo[4,5-g]quinoline-5,5′-pyrimidine]-2′,4′,6′(1′H,3′H)-trione], 0.7 µM. On the same count and under the same terms, the result for `C[C@@H]1CN2c3c(cc4c(-c5nc(C(=O)N(C)C)cs5)noc4c3F)CC3(C(=O)NC(=O)NC3=O)[C@H]2[C@H](C)O1` (racemic) [Example 86, 2-[(2R,4S,4 aS)-rel-11-fluoro-2,4-dimethyl-2′,4′,6′-trioxo-1,1′,2,3′,4,4′,4a,6′-octahydro-2′H,6H-spiro[1,4-oxazino[4,3-a][1,2]oxazolo[4,5-g]quinoline-5,5′-pyrimidin]-8-yl]-N,N-dimethyl-1,3-thiazole-4-carboxamide] reads 5 µM. On the same count and under the same terms, the result for `C[C@@H]1CN2c3c(cc4c(C(F)(F)F)noc4c3F)CC3(C(=O)NC(=O)NC3=O)[C@H]2[C@H](C)O1` (racemic) [Example 92, (2R,4 S,4 aS)-rel-11-fluoro-2,4-dimethyl-8-(trifluoromethyl)-2,4,4a,6-tetrahydro-1H,1′H-spiro[isoxazolo[4,5-g][1,4]oxazino[4,3-a]quinoline-5,5′-pyrimidine]-2′,4′,6′(3′H)-trione] reads 1.4 µM; that for `C[C@@H]1CN2c3c(cc4c(C(F)F)noc4c3F)CC3(C(=O)NC(=O)NC3=O)[C@H]2[C@H](C)O1` (racemic) [Example 93, (2R,4S,4 aS)-rel-8-(difluoromethyl)-11-fluoro-2,4-dimethyl-2,4,4a,6-tetrahydro-1H,1′H-spiro[isoxazolo[4,5-g][1,4]oxazino[4,3-a]quinoline-5,5′-pyrimidine]-2′,4′,6′(3′H)-trione], 0.7 µM. On to `C[C@@H]1CN2c3c(cc4c(C(=O)NCC(F)F)noc4c3F)CC3(C(=O)NC(=O)NC3=O)[C@H]2[C@H](C)O1` (racemic) [Example 94, (2R,4 S,4 aS)-rel-N-(2,2-difluoroethyl)-11-fluoro-2,4-dimethyl-2′,4′,6′-trioxo-2,2′,3′,4,4a,4′,6,6′-octahydro-1H,1′H-spiro[isoxazolo[4,5-g][1,4]oxazino[4,3-a]quinoline-5,5′-pyrimidine]-8-carboxamide], for which the concentration for half-maximal inhibition (IC50) is 1.6 µM. `C[C@@H]1CN2c3c(cc4c(-c5cnccn5)noc4c3Cl)CC3(C(=O)NC(=O)NC3=O)[C@H]2[C@H](C)O1` (racemic) [Example 120, (2R,4 S,4 aS)-rel-11-chloro-2,4-dimethyl-8-(pyrazin-2-yl)-2,4,4a,6-tetrahydro-1H,1′H-spiro[isoxazolo[4,5-g][1,4]oxazino[4,3-a]quinoline-5,5′-pyrimidine]-2′,4′,6′(3′H)-trione]: the IC50 turned out to be 0.2 µM. The same measure, in the same setting: the result for `CCNC(=O)c1noc2c(F)c3c(cc12)CC1(C(=O)NC(=O)NC1=O)[C@H]1[C@H](C)O[C@H](C)CN31` (racemic) [Example 138, (2R,4 S,4 aS)-rel-N-ethyl-11-fluoro-2,4-dimethyl-2′,4′,6′-trioxo-2,2′,3′,4,4a,4′,6,6′-octahydro-1H,1′H-spiro[isoxazolo[4,5-g][1,4]oxazino[4,3-a]quinoline-5,5′-pyrimidine]-8-carboxamide] reads 1.7 µM; that for `C[C@@H]1CN2c3c(cc4c(C(=O)N5CCC(F)(F)C5)noc4c3F)CC3(C(=O)NC(=O)NC3=O)[C@H]2[C@H](C)O1` (racemic) [Example 158, (2R,4 S,4 aS)-rel-8-(3,3-difluoropyrrolidine-1-carbonyl)-11-fluoro-2,4-dimethyl-2,4,4a,6-tetrahydro-1H,1′H-spiro[isoxazolo[4,5-g][1,4]oxazino[4,3-a]quinoline-5,5′-pyrimidine]-2′,4′,6′(3′H)-trione], 1.4 µM; that for `C[C@@H]1CN2c3c(cc4c(C(=O)NCc5ccnn5C)noc4c3F)CC3(C(=O)NC(=O)NC3=O)[C@H]2[C@H](C)O1` (racemic) [Example 162, (2R,4 S,4 aS)-rel-11-fluoro-2,4-dimethyl-N-((1-methyl-1H-pyrazol-5-yl)methyl)-2′,4′,6′-trioxo-2,2′,3′,4,4a,4′,6,6′-octahydro-1H,1′H-spiro[isoxazolo[4,5-g][1,4]oxazino[4,3-a]quinoline-5,5′-pyrimidine]-8-carboxamide], 2.1 µM. On the same count and under the same terms, the result for `C[C@@H]1CN2c3c(cc4c(N)noc4c3F)CC3(C(=O)NC(=O)NC3=O)[C@H]2[C@H](C)O1` (relative stereo) [Example 1, (2R,4S,4aS)-rel-8-amino-11-fluoro-2,4-dimethyl-1,2,4,4a-tetrahydro-2′H,6H-spiro[isoxazolo[4,5-g][1,4]oxazino[4,3-a]quinoline-5,5′-pyrimidine]-2′,4′,6′(1′H,3′H)-trione] reads 0.5 µM; that for `C[C@@H]1CN2c3c(cc4c(-c5ccccc5)noc4c3F)CC3(C(=O)NC(=O)NC3=O)[C@H]2[C@H](C)O1` (relative stereo) [Example 3, (2R,4S,4aS)-rel-11-fluoro-2,4-dimethyl-8-phenyl-1,2,4,4a-tetrahydro-2′H,6H-spiro[isoxazolo[4,5-g][1,4]oxazino[4,3-a]quinoline-5,5′-pyrimidine]-2′,4′,6′(1′H,3′H)-trione], 0.4 µM.

As a reminder, the IC50 is the concentration that inhibits the measured activity by half.
